According to patent US20250313546A1, “NUCLEIC ACID BINDERS” (UNIVERSITY OF STRATHCLYDE, priority 2022, published 2025):
≈ marks a conversion by molar mass, not a printed value. Where two headings read alike, the source gives them in different places.

Experiments:
[1] = test system: PolyAU double stranded RNA; experiment: Fluorescence intercalator displacement (FID) assay, SYBR-safe probe; conditions: 20 μM compound, 30° C., lower % = stronger binding
Summary of the method: (§1)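 Compound at 20 μM mixed with 3.76 ng/mL polyAU dsRNA or salmon genomic dsDNA and 12500-fold diluted SybrSafe in 1 mM phosphate buffer pH 7.4, then heated to 30 °C and fluorescence read. Reduction is expressed as normalised %, with nucleic acid plus probe as maximum and probe alone as minimum.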

[2] = test system: Genomic double stranded DNA (salmon); experiment: as above; conditions: 20 μM compound, 30° C., lower % = stronger binding
Summary of the method: as §1

[3] = test system: Rhizopus arrhizus (NEQAS12.35321); conditions: read-out: MIC99 Rhizopus arrhizus
Candida auris (H.17.157) = conditions: for MIC99: Candidozyma auris, read-out: MIC99 Candida auris; for C. auris Selectivity Indices, Group: SI, IC50 (μM)/MIC99 (μg/mL), HEK293 cytotoxicity, Alkyl Amidines and NH Pyrroles
C. neoformans (F10025) = conditions: Cryptococcus neoformans, read-out: MIC99 C. neoformans
[4] = test system: Enterococcus faecalis (ATCC 51299); experiment: Antibacterial MIC, broth microdilution (CLSI); assay type: cell-based; conditions: for MIC80: Enterococcus faecalis, ATCC51299, read-out: MIC80 E. faecalis
[5] = test system: Staphylococcus aureus (ATCC 43300); experiment: Antibacterial MIC, broth microdilution (CLSI); assay type: cell-based; conditions: for S. aureus Selectivity Indices, Group / S. aureus Selectivity Index (SI): SI, IC50 (μM)/MIC80 (μM), HEK293 cytotoxicity; for S. aureus Selectivity Index (SI): numeric value; for MIC80: Staphylococcus aureus, ATCC43300, read-out: MIC80 S. aureus
T. vaginalis = experiment: Trichomonas resorufin assay; assay type: cell-based; conditions: for IC50: Trichomonas vaginalis, read-out: IC50 T. vaginalis
[6] = test system: Escherichia coli (ATCC 25922); experiment: Antibacterial MIC, broth microdilution (CLSI); assay type: cell-based; conditions: Escherichia coli, ATCC25922; read-out: MIC80 E. coli
[7] = test system: Candida glabrata (ACPF3309); conditions: for MIC99: Nakaseomyces glabratus, read-out: MIC99 Candida glabrata; for C. glabrata Selectivity Indices, Group: SI, IC50 (μM)/MIC99 (μg/mL), HEK293 cytotoxicity, Alkyl Amidines and NH Pyrroles
Experimental: The Minimum Inhibitory Concentration (MIC, at 99% inhibition) of the compounds was determined using the broth microdilution method as recommended by EUCAST (EUCAST Definitive Document E.DEF 9.3.2, Method for the determination of broth dilution minimum inhibitory concentrations of antifungal agents for conidia forming moulds and EUCAST Definitive Document E.DEF 7.3.2 Method for the determination of broth dilution minimum inhibitory concentrations of antifungal agents for yeasts).

[8] = test system: A. fumigatus A1160 (MFIG001); conditions: Aspergillus fumigatus, read-out: MIC99 A. fumigatus A1160
[9] = test system: SARS-CoV-2 (hCoV-19/Australia/VIC01/2020); experiment: SARS-CoV-2 microplaque inhibition assay in Vero-E6 cells; assay type: cell-based; conditions: for SARS-CoV-2 Selectivity Indices, Group: SI, IC50 (μM)/IC50 (μM), HEK293 cytotoxicity, Alkyl Amidines and NH Pyrroles
[10] = SI, IC50 (μM)/MIC80 (μM), HEK293 cytotoxicity, Alkyl Amidines and NH Pyrroles
[11] = SI, IC50 (μM)/IC50 (μM), HEK293 cytotoxicity, Alkyl Amidines and NH Pyrroles

SMILES	% Normalised Fluorescence with polyAU RNA [1]	% Normalised Fluorescence with gDNA [2]	MIC99 [3]	MIC99 (Candida auris (H.17.157))	MIC99 (C. neoformans (F10025))	MIC80 [4]	S. aureus Selectivity Indices, Group ([5]; Alkyl Amidines and NH Pyrroles)	MIC80 [5]	IC50 (T. vaginalis)	MIC80 [6]	MIC99 [7]	MIC99 [8]	E. faecalis Selectivity Indices, Group [4, 10]	T. vaginalis Selectivity Indices, Group (T. vaginalis; [11])	other results
CCCCNC(=N)CCNC(=O)c1cc(NC(=O)c2cc(NC(=O)c3ccc(/C=C/c4cnc5ccccc5c4)cc3)cn2C)cn1C [Ia34, (E)-N-(3-(butylamino)-3-iminopropyl)-1-methyl-4-(1-methyl-4-(4-(2-(quinolin-3-yl)vinyl)benzamido)-1H-pyrrole-2-carboxamido)-1H-pyrrole-2-carboxamide]	6%	7%	> 50 µg/mL	> 50 µg/mL	25 to 50 µg/mL (≈ 38.8 to 77.5 µM)	5 to 25 µM (≈ 3.22 to 16.1 µg/mL)	D (D: SI > 10)	< 5 µM	1 to 5 µM	> 100 µM	5 to 25 µg/mL (≈ 7.75 to 38.8 µM)	> 50 µg/mL	–	–	S. aureus Selectivity Index (SI) [5]: 15
COCCOCC[N+](C)(C)CCNC(=O)c1cc(NC(=O)c2cc(NC(=O)c3ccc(/C=C/c4cnc5ccccc5c4)cc3)cn2C)cn1C [Ic18, (E)-2-(2-methoxyethoxy)-N,N-dimethyl-N-(2-(1-methyl-4-(1-methyl-4-(4-(2-(quinolin-3-yl)vinyl)benzamido)-1H-pyrrole-2-carboxamido)-1H-pyrrole-2-carboxamido)ethyl)ethan-1-aminium]	–	–	25 to 50 µg/mL	> 50 µg/mL	5 to 25 µg/mL	< 5 µM	–	< 5 µM	1 to 5 µM	> 100 µM	< 5 µg/mL	> 50 µg/mL	–	–	E. faecalis Selectivity Indices, Group ([4]; SI, IC50 (μM)/MIC80 (μM), HEK293 cytotoxicity, Quaternary ammoniums): D (Group D: SI > 5); E. faecalis Selectivity Index (SI) ([4]; SI, IC50 (μM)/MIC80 (μM), HEK293 cytotoxicity, numeric value): 5.1; S. aureus Selectivity Indices, Group ([5]; Quaternary ammoniums): C (Group C: 5 < SI <= 10); T. vaginalis Selectivity Indices, Group (T. vaginalis; SI, IC50 (μM)/IC50 (μM), HEK293 cytotoxicity, Quaternary ammoniums): C (Group C: 1.5 < SI <= 3)
[H]/N=C(\CCNC(=O)c1cc(NC(=O)c2cc(NC(=O)c3ccc(C=Cc4ccc(N(C)C)cc4)nc3)cn2C)cn1C)NCCCCCCCCC [Ia32, (E)-6-(4-(dimethylamino)styryl)-N-(5-((5-((3-imino-3-(nonylamino)propyl)carbamoyl)-1-methyl-1H-pyrrol-3-yl)carbamoyl)-1-methyl-1H-pyrrol-3-yl)nicotinamide]	23%	67%	> 50 µg/mL	> 50 µg/mL	5 to 25 µg/mL (≈ 7.06 to 35.3 µM)	> 100 µM	C (Group C: 5 < SI <= 10)	< 5 µM	> 50 µM	> 100 µM	5 to 25 µg/mL (≈ 7.06 to 35.3 µM)	> 50 µg/mL	–	–	–
CCCCCNC(=N)CCNC(=O)c1cc(NC(=O)c2cc(NC(=O)c3ccc(/C=C/c4cnc5ccccc5c4)cc3)cn2C)cn1C [Ia35, (E)-N-(3-imino-3-(pentylamino)propyl)-1-methyl-4-(1-methyl-4-(4-(2-(quinolin-3-yl)vinyl)benzamido)-1H-pyrrole-2-carboxamido)-1H-pyrrole-2-carboxamide]	3%	21%	> 50 µg/mL	> 50 µg/mL	25 to 50 µg/mL (≈ 37.9 to 75.9 µM)	5 to 25 µM (≈ 3.29 to 16.5 µg/mL)	–	< 5 µM	1 to 5 µM	> 100 µM	5 to 25 µg/mL (≈ 7.59 to 37.9 µM)	> 50 µg/mL	–	–	–
Cn1cc(NC(=O)c2cc(NC(=O)c3ccc(/C=C/c4cnc5ccccc5c4)cc3)cn2C)cc1C(=O)NCCC(=N)N1CCCCC1 [Ib1, (E)-N-(3-imino-3-(piperidin-1-yl)propyl)-1-methyl-4-(1-methyl-4-(4-(2-(quinolin-3-yl)vinyl)benzamido)-1H-pyrrole-2-carboxamido)-1H-pyrrole-2-carboxamide]	12%	23%	25 to 50 µg/mL (≈ 38.1 to 76.1 µM)	> 50 µg/mL	5 to 25 µg/mL (≈ 7.61 to 38.1 µM)	< 5 µM	D (D: SI > 10)	< 5 µM	–	> 100 µM	< 5 µg/mL	5 to 25 µg/mL (≈ 7.61 to 38.1 µM)	–	–	S. aureus Selectivity Index (SI) [5]: 11; IC50 (T. vaginalis; resorufin assay): 1 to 5 µM
Cn1cc(NC(=O)c2cc(NC(=O)c3ccc(/C=C/c4cnc5ccccc5c4)cc3)cn2C)cc1C(=O)NCCN1CCOCC1 [Ref-3, (E)-1-methyl-4-(1-methyl-4-(4-(2-(quinolin-3-yl)vinyl)benzamido)-1H-pyrrole-2-carboxamido)-N-(2-morpholinoethyl)-1H-pyrrole-2-carboxamide, reference compound]	–	–	–	–	–	–	A (Group A: SI < 3)	–	–	–	–	–	A (Group A: SI < 3)	A (Group A: SI < 8)	SARS-CoV-2 Selectivity Indices, Group [9]: A (Group A: SI < 4.1); C. auris Selectivity Indices, Group (Candida auris (H.17.157)): A (Group A: SI < 0.4); E. faecalis Selectivity Indices, Group ([4]; SI, IC50 (μM)/MIC80 (μM), HEK293 cytotoxicity, Amides): A (Group A: SI < 0.4); S. aureus Selectivity Indices, Group ([5]; Amides): A (Group A: SI < 1.4); T. vaginalis Selectivity Indices, Group (T. vaginalis; SI, IC50 (μM)/IC50 (μM), HEK293 cytotoxicity, Amides): A (Group A: SI < 0.25); C. glabrata Selectivity Indices, Group [7]: A (Group A: SI < 12)
[H]/N=C(\CCNC(=O)c1cc(NC(=O)c2cc(NC(=O)c3ccc(C=Cc4ccc5nonc5c4)cc3)cn2C)cn1C)N1CCCCC1 [Ib2, (E)-4-(4-(2-(benzo[c][1,2,5]oxadiazol-5-yl)vinyl)benzamido)-N-(5-((3-imino-3-(piperidin-1-yl)propyl)carbamoyl)-1-methyl-1H-pyrrol-3-yl)-1-methyl-1H-pyrrole-2-carboxamide]	3%	12%	5 to 25 µg/mL (≈ 7.72 to 38.6 µM)	> 50 µg/mL	5 to 25 µg/mL (≈ 7.72 to 38.6 µM)	< 5 µM	–	< 5 µM	< 1 µM	> 100 µM	< 5 µg/mL	5 to 25 µg/mL (≈ 7.72 to 38.6 µM)	–	–	–
CCN(CC)CCCC(C)Nc1ccnc2cc(Cl)ccc12 (centres unmarked) [chloroquine diphosphate, reference compound]	–	–	–	–	–	–	–	–	–	–	–	–	–	–	IC50 ([9]; Severe acute respiratory syndrome coronavirus 2, Vero C1008, read-out: IC50 SARS-CoV-2 infectious viral foci): 0.641 µM
COc1ccc(/C=C/c2ccc(C(=O)Nc3cc(C(=O)Nc4cc(C(=O)NCCN5CCOCC5)n(C)c4)n(C)c3)cn2)cc1 [Ref-2, reference compound]	–	–	–	–	–	–	A (Group A: SI < 3)	–	–	–	–	–	A (Group A: SI < 3)	A (Group A: SI < 8)	SARS-CoV-2 Selectivity Indices, Group [9]: A (Group A: SI < 4.1); C. auris Selectivity Indices, Group (Candida auris (H.17.157)): A (Group A: SI < 0.4); C. glabrata Selectivity Indices, Group [7]: A (Group A: SI < 12)
CCNC(=N)CCNC(=O)c1cc(NC(=O)c2cc(NC(=O)c3ccc(/C=C/c4ccc(OC)cc4)nc3)cn2C)cn1C [Ia24, (E)-N-(5-((5-((3-(ethylamino)-3-iminopropyl)carbamoyl)-1-methyl-1H-pyrrol-3-yl)carbamoyl)-1-methyl-1H-pyrrol-3-yl)-6-(4-methoxystyryl)nicotinamide]	4%	1%	> 50 µg/mL	> 50 µg/mL	5 to 25 µg/mL (≈ 8.38 to 41.9 µM)	–	–	< 5 µM	–	> 100 µM	5 to 25 µg/mL (≈ 8.38 to 41.9 µM)	25 to 50 µg/mL (≈ 41.9 to 83.8 µM)	C (Group C: 5 < SI <= 10)	D (Group D: SI > 32)	T. vaginalis Selectivity Index (SI) (T. vaginalis; SI, IC50 (μM)/IC50 (μM), HEK293 cytotoxicity, numeric value): 69
COc1cccc(/C=C/c2ccc(C(=O)Nc3cc(C(=O)Nc4cc(C(=O)NCCC(=N)N)n(C)c4)n(C)c3)cc2)c1 [Ref-5, reference compound]	–	–	–	–	–	–	A (Group A: SI < 3)	–	–	–	–	–	A (Group A: SI < 3)	A (Group A: SI < 8)	SARS-CoV-2 Selectivity Indices, Group [9]: A (Group A: SI < 4.1); C. glabrata Selectivity Indices, Group [7]: A (Group A: SI < 12)
[H]/N=C(\CCNC(=O)c1cc(NC(=O)c2cc(NC(=O)c3ccc(C=Cc4ccc5nonc5c4)cc3)cn2C)cn1C)N1CCSCC1 [Ib8, (E)-4-(4-(2-(benzo[c][1,2,5]oxadiazol-5-yl)vinyl)benzamido)-N-(5-((3-imino-3-thiomorpholinopropyl)carbamoyl)-1-methyl-1H-pyrrol-3-yl)-1-methyl-1H-pyrrole-2-carboxamide]	4%	15%	5 to 25 µg/mL (≈ 7.51 to 37.5 µM)	–	5 to 25 µg/mL (≈ 7.51 to 37.5 µM)	< 5 µM	–	< 5 µM	1 to 5 µM	> 100 µM	< 5 µg/mL	5 to 25 µg/mL (≈ 7.51 to 37.5 µM)	–	–	–
